# Data as given in US11446393B2, “Non-viral gene delivery agent comprising lipopeptide (LP) compounds” (MONASH UNIVERSITY, priority 2017, dated 2022).
# Peptide text beside a SMILES is read from it. * marks the point of attachment. Stearoyl = CCCCCCCCCCCCCCCCCC(=O)*
# System: plasmid DNA
# Assay: Dye exclusion assay (SYBR Gold) of DNA condensation by lipopeptide
# Format: physicochemical
# Settings: charge ratio 2.5:1; n=3, p<0.05; data not shown
# Experimental: To determine the charge ratio at which the LP effectively condenses the DNA, a dye exclusion assay was carried out. In a 96-well black-bottomed plate, plasmid DNA (20 μg/mL) was prepared in 12 mM Tris-HCl (pH 7.4) buffer. To each well containing DNA, 0.05 μL of 10,000× concentrated stock of intercalating SYBR® Gold (Thermo Fisher Scientific) was added and the plate was incubated at room temperature for 15 minutes. The LP was then added to the wells at a series of charge ratios from 0.5:1 to 5:1. A well containing 20 μg/mL of naked DNA and SYBR® Gold was used as a 100% fluorescence intensity standard (ie no LP added). A blank well containing only the SYBR® Gold in buffer was used to subtract from the fluorescent readings of each sample. The plate was incubated at room temperature for 30 minutes for particle formation. The fluorescence (excitation 492 nm, emission 540 nm) of each sample was measured using a Wallac Envision 2102 Multilabel Reader (PerkinElmer, Waltham, Mass., United States of America).
smiles,measurement,value
"CCCCCCCCCCCCCCCCCC(=O)NC(CS)C(=O)NC(Cc1cnc[nH]1)C(=O)NC(Cc1cnc[nH]1)C(=O)NC(CCCCN)C(=O)NC(CCCCN)C(=O)NC(CCCCN)C(=O)O (stereo not drawn) [stearoyl-CH2K3, stearoyl-Cys-His-His-Lys-Lys-Lys] (Stearoyl-CHHKKK-OH; configuration not given here)",Fluorescence of LP/DNA particles after addition of dithiothreitol (DTT) to the LP before complexation,significantly increased the degree of fluorescence
